Legend:
Type in all cases: cell-based, Enterococcus faecalis
[1] = test system: E. faecalis bacteria (ATCC 29212) biofilm; test: Disinfection of four-week old biofilm in root canal (CFU from dentine shavings)
Description: The institutional review board of the National University of Singapore approved the collection and use of extracted human teeth for this experiment. Thirty single rooted teeth maintained in Phosphate Buffer Saline (PBS) with similar shape and sizes were selected for the following experiment. The crown (at the level of Cemento-Enamel Junction) and the […] of the root were removed using a microslice machine (Metal Research, England) to obtain standard sized specimens of 8 mm length. The prepared tooth specimens were selected for the experiments after inspecting for any signs of cracks or damages on the cementum. The remnants of the pulp tissue were removed from the root canal using a barbed broach and the tooth specimens were autoclaved before further experiments.
A single colony of E. faecalis bacteria (ATCC 29212) culture was incubated in All Culture Broth (AC Broth) for 8 hours. The optical density of the culture was adjusted to 1 at 600 nm that corresponds to 10^9 cells/mL. The sterilized tooth specimens were placed in the AC broth (50 mL) with the bacterial culture and incubated in an orbital incubator (120 rpm) at 37° C. under aerobic conditions. The culture medium was replenished once in every two days to remove dead cells and to ensure proper growth of bacteria. After four weeks of incubation, the tooth specimens were subjected to the following experiment.
This experiment was conducted to observe the efficiency of different antimicrobial treatments on a matured root canal biofilm. After the specific incubation period, the tooth specimens were removed and washed with sterile PBS. The specimens were randomly divided into five experimental groups and treated accordingly.
Group 2 (conventional PDT): The tooth specimens in this group were subjected to conventional PDT. The root canals of the specimens were filled with 100 μM of MB (photosensitization) for 20 minutes and was irradiated immediately with 660 nm laser light for 20 minutes to attain a total energy level of 36 J (n=6). […]

[2] = test system: E. faecalis biofilms grown on a glass cover slip; test: Structural damage to biofilm by PDT in vitro (CLSM, live/dead stain); details: seven-day biofilm, 664 nm, 31.84 J/cm^2
Experimental: The structural damage to biofilm caused by PDT was assessed on E. faecalis biofilms grown on a glass cover slip that was fixed covering a grove (6 mm diameter) made at the bottom part of a petri dish. E. faecalis cell suspension (100 μL containing ˜10^7 cells/mL) prepared from overnight grown culture in All-Culture (AC) media was added onto the saliva-coated glass-cover slip. Six petri dishes containing the biofilm were tested in each group. After seven days of incubation with periodical replacement of growth media, the biofilm was washed and photosensitised with either 100 μM MB in water or PF4 (MB in an emulsion produced by mixing perfluorodecahydro naphthalene:H2O2:triton-X100 in the ratio 75:24.5:0.5). These biofilms were incubated in the dark for ten minutes, after which the excess of the photosensitising formulation was partially replaced with perfluorodecahydro naphthalene and exposed to irradiation using 664 nm diode laser with a total fluence of 31.84 J/cm^2.
After the PDT, the washed biofilms were stained using 20 μL PBS containing 2 μL of live/dead stain (Molecular Probes, Eugene, Oreg., USA) and were observed using confocal laser scanning microscopy (CLSM). […] The optical sections of the biofilm structure were recorded and analyzed by using FluoView software (Olympus Corporation, Tokyo, Japan).

[3] = test system: E. faecalis biofilm in root canals; test: PDT of endodontic bacterial biofilm ex vivo (ten-week biofilm in tooth specimens)
Experimental: Thirty tooth blocks were prepared by removing the crown at the level of cementoenamel junction and the apical third of the root canal (˜8 mm long). All specimens were instrumented using K-files with sizes from #20 to #40. The smear layer formed during mechanical shaping was removed by rinsing the root canal with sodium hypochlorite (1%) followed by EDTA (100 mM). The prepared single-rooted tooth specimens were incubated with 50 mL of AC media inoculated with a single colony of E. faecalis as described elsewhere (George S and Kishen A, J Biomed Opt, 2000). Incubation was carried out for ten weeks at 37° C. with periodical replacement of growth media under constant shaking (120 rpm). After the incubation period, the tooth specimens were randomly divided into five groups and were treated as follows:
Group 2—Root canal-treatment (RCT) group (n=5): root canals were subjected to conventional cleaning and shaping procedures performed by using a sequence of endodontic file sizes (#25 to #50 K-files; Maillefer Instruments SA, Switzerland). The root canals were repeatedly irrigated with 5 mL of 5.2% sodium hypochlorite before and after instrumentation step using a 28-G needle and a syringe. Ethylenediaminetetraacetic acid (EDTA) 17% was also used at the end of instrumentation to remove the smear layer. Group 3—Conventional PDT group (n=5): root canals were subjected to minimal instrumentation (using #25 K file). These root canals were filled with 100 μM MB in water and were irradiated with 664 nm laser light with a total energy of 31.84 J/cm^2. Group 4—PF4 group (n=5): root canals were subjected to minimal instrumentation (using #25 K file) followed by PDT using PF4. Here, the root canals were filled with PF4 and were left in the dark for 10 minutes. After the sensitization period, the excess of the photosensitizing formulation was partially replaced with perfluorodecahydro naphthalene and the root canals were irradiated with 664 nm diode laser with a total fluence of 31.84 J/cm^2. Group 5—RCT+PF4 group (n=5): root canals were subjected to the conventional root canal disinfection procedure similar to the conventional RCT group (i.e. Group 2) followed by PDT using PF4.
After the specified treatment, the tooth-specimens were split open mesiodistally, and dentine shavings were collected using a round bur of 1 mm diameter held perpendicular to the root canal surface. The dentine shavings were collected at midpoint (coronoapically) from the two halves (buccal and lingual) of each root (n=12). […] Colony-forming units (CFU) were enumerated on the subsequent day, and the mean value of log10 number of bacteria and the standard error were calculated. […] The numbers of tubes positive for bacterial cells were counted against the total number of tubes.

[4] = after 4 hours of enrichment, compared with the control group

In the case of CN(C)c1ccc2nc3ccc(=[N+](C)C)cc-3sc2c1 [MB in water, Methylene blue], the “inactivation of bacteria” value [1] is reported as “failed to show significant bacterial reduction”, the “difference in bacterial count” value ([1]; compared to control group) is reported as 0.38 log10 and the bacterial kill ([1]; corresponds to log10 difference vs control group) is reported as 59%. The “viability of biofilm bacteria after PDT” value ([2]; live/dead stain) was “increased the proportion of dead cells”, the “biofilm thickness after PDT” value ([2]; untreated biofilm 17 μm) was 12 μm and the “difference in the mean viable count” value [3, 4] was 1.5 log10. The “reduction in viable bacteria” value [3, 4] was 96.89%, the “% of tooth specimens positive for bacteria after 24 hours of enrichment” value ([3]; ten-week biofilm, dentine shavings) was 100% and the “CFU (log10) after 4 hours of enrichments (±SD)” value ([3]; ten-week biofilm, dentine shavings, control group 7.147) was 5.639 (±0.066) log10.
